≈ marks a conversion by molar mass, not a printed value.
Key:
[1] = test system: "very low density"-, "low-density"- bzw. "high density"-Lipoproteinen (VLDL, LDL bzw. HDL) im Serum; assay: Lipid-lowering effect in rats: serum lipoproteins after oral dosing (arrangement A: genetically hypercholesterolaemic male rats; arrangement B: normolipaemic rats); type: in vivo, Ratten; conditions: repeated administration of 30 mg/kg daily
Text: Die Diacyl-Verbindungen der vorliegenden Erfindung dagegen weisen, wenn überhaupt, eine nur marginale antibiotische Wirkung auf. Ueberraschenderweise besitzen sie jedoch eine lipidsenkende Wirkung, die in Tierversuchen, vorzugsweise an Säugetieren, z.B. an Ratten, nachgewiesen werden kann. So kann die Senkung von "very low density"-, "low-density"- bzw. "high density"-Lipoproteinen (VLDL, LDL bzw. HDL) im Serum in zwei Testanordnungen, und zwar in genetisch hypercholesterolämischen männlichen Ratten (Anordnung A) und normolipämischen Ratten beiden Geschlechts (Anordnung B) gezeigt werden.
Albino-Ratten mit einem Körpergewicht von 180-240 g, die freien Zugang zu Standard-Rattenfutter und Trinkwasser haben, werden verwendet, und zwar in Anordnung A Sprague Dawley Abkömmlinge des Stammes Tif:RAI und in Anordnung B Tiere des Wistar-Stammes IVa-WI. Die Testverbindung wird in einer Polyethylenglykollösung (mittleres Molekulargewicht von 400) oral an Gruppen von 8 bis 10 Ratten verabreicht, in der Anordnung A einmal täglich um 8 Uhr vormittags während drei aufeinanderfolgenden Tagen und zweimal, um 8 Uhr und 16 Uhr, am vierten Tag, oder im Falle der Anordnung B täglich während 5 aufeinanderfolgenden Tagen. Im Experiment A werden die Tiere 16 Stunden und im Experiment B zwei Stunden nach der letzten Gabe durch Ausblutenlassen vom Hals unter Anästhesie mit Ether getötet. […]

[2] = test system: Staphylococcus aureus; assay: Antibiotic effect in vivo in infected mice; set-up: species or system Mäuse; conditions: mice infected with Staphylococcus aureus, single dose of 200 mg/kg
Text: (§1) Die Ermittlung der antibiotischen Wirkung erfolgt z.B. einerseits in vitro durch die Bestimmung der mittleren effektiven Konzentration EC₅₀ für die Hemmung der RNA-Polymerase von Escherichia coli, sowie der minimalen Hemmkonzentration MIC ("minimum inhibitory concentration") im konventionellen Plattentest, andererseits in vivo an infizierten Mäusen und Ratten durch die Bestimmung von ED₅₀ (effektive Dosis, die für 50 % der Versuchstiere lebenserhaltend ist). Als Mikroorganismen werden für den vorliegenden Zweck insbesondere Mycobacterium tuberculosis TB H₃₇Rv und Staphylococcus aureus verwendet. Bei Verbindungen mit lipidsenkender Indikation wird eine antibiotische Wirksamkeit als nachteilig erachtet, da sie, insbesondere bei langfristiger Verabreichung, zur Bildung von gegen Antibiotika resistenten Stämmen von Mikroorganismen führen kann.

[3] = test system: Staphylococcus aureus; assay: Minimum inhibitory concentration, conventional plate test; type: cell-based; conditions: various pathogenic strains of Staphylococcus aureus
Text: as §1

[4] = target: RNA-Polymerase von Escherichia coli (Escherichia coli, UniProt P0A8V2); assay: Inhibition of RNA polymerase (antibiotic effect in vitro); type: biochemical; conditions: not yet reached at 100 µg/ml; read-out: EC₅₀ für die Inhibition der RNA-Polymerase
RNA-Polymerase von Escherichia coli, sequence (P0A800 whole entry): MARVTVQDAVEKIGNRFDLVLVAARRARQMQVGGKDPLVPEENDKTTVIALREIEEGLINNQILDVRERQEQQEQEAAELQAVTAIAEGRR
RNA-Polymerase von Escherichia coli, sequence (P0A8T7 whole entry, further chain): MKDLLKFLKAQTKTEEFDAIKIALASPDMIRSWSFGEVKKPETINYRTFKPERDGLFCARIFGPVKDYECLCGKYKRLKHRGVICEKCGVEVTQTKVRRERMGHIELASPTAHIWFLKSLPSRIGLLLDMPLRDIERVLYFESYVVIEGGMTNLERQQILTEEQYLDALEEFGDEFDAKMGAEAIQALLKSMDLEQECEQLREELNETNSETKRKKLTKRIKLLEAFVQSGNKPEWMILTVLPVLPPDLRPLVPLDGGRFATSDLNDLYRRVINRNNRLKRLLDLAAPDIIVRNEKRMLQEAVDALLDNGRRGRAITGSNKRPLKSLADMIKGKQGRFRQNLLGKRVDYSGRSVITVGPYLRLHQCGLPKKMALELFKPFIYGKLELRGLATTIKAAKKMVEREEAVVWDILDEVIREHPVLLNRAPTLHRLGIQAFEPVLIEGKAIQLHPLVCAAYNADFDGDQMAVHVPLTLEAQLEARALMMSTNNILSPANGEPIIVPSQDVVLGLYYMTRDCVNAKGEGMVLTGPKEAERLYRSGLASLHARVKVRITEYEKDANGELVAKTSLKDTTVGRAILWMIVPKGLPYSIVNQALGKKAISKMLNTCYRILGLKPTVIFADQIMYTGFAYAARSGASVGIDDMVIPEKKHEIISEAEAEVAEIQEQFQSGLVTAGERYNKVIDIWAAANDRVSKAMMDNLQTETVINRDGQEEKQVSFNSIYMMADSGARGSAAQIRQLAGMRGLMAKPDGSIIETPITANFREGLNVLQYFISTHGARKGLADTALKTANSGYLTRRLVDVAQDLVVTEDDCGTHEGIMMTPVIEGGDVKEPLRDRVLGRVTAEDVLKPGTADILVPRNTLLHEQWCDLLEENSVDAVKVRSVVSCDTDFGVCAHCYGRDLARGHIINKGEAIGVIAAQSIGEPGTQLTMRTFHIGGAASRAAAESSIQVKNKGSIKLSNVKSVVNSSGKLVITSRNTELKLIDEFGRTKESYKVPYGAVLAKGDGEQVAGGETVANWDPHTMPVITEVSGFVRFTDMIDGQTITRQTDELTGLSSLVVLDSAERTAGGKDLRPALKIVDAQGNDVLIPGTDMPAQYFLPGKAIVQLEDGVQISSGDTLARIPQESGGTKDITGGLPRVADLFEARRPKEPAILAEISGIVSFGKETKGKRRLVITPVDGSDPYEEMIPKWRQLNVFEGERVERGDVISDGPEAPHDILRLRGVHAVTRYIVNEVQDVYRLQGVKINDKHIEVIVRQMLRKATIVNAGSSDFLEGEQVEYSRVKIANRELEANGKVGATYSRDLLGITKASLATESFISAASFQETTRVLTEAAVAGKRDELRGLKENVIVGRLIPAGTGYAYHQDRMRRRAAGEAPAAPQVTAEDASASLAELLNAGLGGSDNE
RNA-Polymerase von Escherichia coli, sequence (P0A8V2 whole entry): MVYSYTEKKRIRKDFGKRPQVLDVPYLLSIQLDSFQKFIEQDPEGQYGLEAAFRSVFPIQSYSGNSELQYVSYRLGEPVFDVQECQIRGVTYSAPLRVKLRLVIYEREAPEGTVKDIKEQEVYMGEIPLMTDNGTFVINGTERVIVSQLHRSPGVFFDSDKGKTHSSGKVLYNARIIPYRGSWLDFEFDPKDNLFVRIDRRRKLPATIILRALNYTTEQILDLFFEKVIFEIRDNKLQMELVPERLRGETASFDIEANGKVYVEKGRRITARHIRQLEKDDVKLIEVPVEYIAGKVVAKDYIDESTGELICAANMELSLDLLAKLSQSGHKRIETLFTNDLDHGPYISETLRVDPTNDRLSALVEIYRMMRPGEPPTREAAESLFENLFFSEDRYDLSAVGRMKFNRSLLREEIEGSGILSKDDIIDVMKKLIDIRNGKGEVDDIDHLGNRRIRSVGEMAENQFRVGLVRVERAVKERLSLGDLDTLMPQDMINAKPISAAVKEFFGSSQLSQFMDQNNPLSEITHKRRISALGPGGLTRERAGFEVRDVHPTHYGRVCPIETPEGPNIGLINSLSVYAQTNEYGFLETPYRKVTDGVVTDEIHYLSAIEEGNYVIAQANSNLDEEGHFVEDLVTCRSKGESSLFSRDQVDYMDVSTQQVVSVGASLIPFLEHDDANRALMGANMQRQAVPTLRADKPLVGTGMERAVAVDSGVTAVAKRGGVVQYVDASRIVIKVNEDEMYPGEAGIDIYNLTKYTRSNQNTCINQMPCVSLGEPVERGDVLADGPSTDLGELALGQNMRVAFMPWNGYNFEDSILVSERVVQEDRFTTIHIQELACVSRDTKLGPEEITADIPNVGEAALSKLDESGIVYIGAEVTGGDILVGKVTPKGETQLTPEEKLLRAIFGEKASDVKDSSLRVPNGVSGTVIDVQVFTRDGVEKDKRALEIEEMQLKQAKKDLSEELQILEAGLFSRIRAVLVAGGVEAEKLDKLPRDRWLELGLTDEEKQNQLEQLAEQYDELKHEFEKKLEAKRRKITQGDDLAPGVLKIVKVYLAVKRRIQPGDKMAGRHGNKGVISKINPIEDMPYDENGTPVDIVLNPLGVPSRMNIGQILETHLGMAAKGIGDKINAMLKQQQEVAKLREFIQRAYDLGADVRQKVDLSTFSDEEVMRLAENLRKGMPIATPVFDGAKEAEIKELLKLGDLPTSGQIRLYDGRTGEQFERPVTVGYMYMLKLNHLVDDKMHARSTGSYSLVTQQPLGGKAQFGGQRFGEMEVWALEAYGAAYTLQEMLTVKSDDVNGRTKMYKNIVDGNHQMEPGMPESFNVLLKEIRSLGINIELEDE
RNA-Polymerase von Escherichia coli, sequence (P0A7Z4 whole entry, further chain): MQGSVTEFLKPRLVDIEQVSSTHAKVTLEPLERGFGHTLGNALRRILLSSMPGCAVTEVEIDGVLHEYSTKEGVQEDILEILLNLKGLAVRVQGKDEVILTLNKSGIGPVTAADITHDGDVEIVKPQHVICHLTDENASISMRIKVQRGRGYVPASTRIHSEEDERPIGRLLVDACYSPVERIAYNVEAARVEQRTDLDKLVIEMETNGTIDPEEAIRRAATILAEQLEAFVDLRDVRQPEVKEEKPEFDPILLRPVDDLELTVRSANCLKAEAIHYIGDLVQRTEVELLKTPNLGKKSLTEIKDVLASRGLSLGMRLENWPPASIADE
Text: as §1

## COC1C=COC2(C)Oc3c(C)c(OC(=O)C(C)(C)C)c4c(c3C2=O)C(=O)C(N2CCN(Cc3c(C)cc(C)cc3C)CC2)=C(C4=O)N(C(=O)C(C)(C)C)C(=O)C(C)=CC=CC(C)C(O)C(C)C(O)C(C)C(OC(C)=O)C1C (stereo not shown) [8-O,N-Dipivaloyl-3-[4-(2,4,6-trimethylbenzyl)-1-piperazinyl]-rifamycin S]
[1]
  Senkung der "LDL-Fraktion": 50-70%
[2]
  antibiotische Wirksamkeit in vivo: antibiotisch unwirksam
[3]
  MIC: ~64 µg/mL (≈ 59.2 µM)
[4]
  EC50: > 92.6 µM

Reference: EP0308568A1, “Diacyl derivatives of 4-(trialkylbenzyl)-piperazinyl compounds” (CIBA-GEIGY AG, priority 1987, dated 1989)
